Measurements reported in US20160243096A1, “METHODS OF TREATING ORTH[…]” (Emergent Virology LLC, priority 2009, published 2016).

Columns and labels:
[1] = Iminosugar safety study in mice; assay type: in vivo, BALB/c and C57/B1/6 mice; conditions: for weight loss compared to vehicle only control: BALB/c and C57/B1/6 mice, oral 100 and 10 mg/kg twice a day for 7 days; for clinical signs: highest concentration (100 mg/kg twice a day, 7 days)
Experimental: Methods and Discussion: BALB/c and C57/B1/6 mice were given oral suspensions of UV-1, UV-4, UV-5, twice a day for seven days, in 100 ul per mouse at 100 and 10 mg/kg (2 mg and 0.2 mg/mouse, respectively) 8 hours apart for 7 days, and then monitored for weight loss and general health. […] The results of these experiments are in FIG. 6.

[2] = test system: Influenza A virus H3N2 (Hong Kong); assay: Inhibition of infectivity / virus yield reduction in MDCK cells; assay type: cell-based; conditions: virus yield reduced by 1 log10, 3 days
Experimental: Table provides data for inhibition of infectivity of Influenza A virus H3N2 (Hong Kong) for NB-DNJ (UV-1), NN-DNJ (UV-2), N7-O-DNJ (UV-3), N9-DNJ (UV-4) and NAP-DNJ (UV-5).
Procedure. The compounds were screened for inhibition of generation of infectious virus was conducted on the UV compounds at concentrations up to 500 μM. The influenza virus, Influenza A H3N2, Brisbane/10/2007 strain was evaluated for virus inhibition. MDCK cells (Madin Darby canine kidney cell line) obtained from American Type Culture Collection (ATCC, Manassas, Va.). Cells were cultured in U1traMDCK, supplemented with 2 mM L-glutamine, 1 μg/ml TPCK-treated trypsin and 100 U/ml penicillin, 100 μg/ml streptomycin in cell culture treated 24-well flat bottom plates at 37° C. in a 5% CO2 incubator for 24 hr or until 80% confluent prior to assay. Cells were pretreated with compounds in a final concentration of 0.5% DMSO for 1 hr followed by addition of virus inoculums. Three wells per virus are saved for a virus-only control. Only medium is added in exchange for compound in these wells, and virus is added after the initial 1 hr incubation. Three days later virus containing supernatants were collected and effect on reduction of virus yield are tested by assaying frozen and thawed eluates from each well for virus titer by serial dilution onto monolayers of MDCK susceptible cells.

[3] = test system: INFV A H1N1 (strain A/Texas); assay: Influenza in vivo study: survival of infected mice; parameters: species or system Balb/c mice; conditions: ~5 LD50 intranasal, monitored 15 days
Experimental: UV-4 was administered as a free drug dissolved in acidic water. The compound was given at 100 mg/kg and 10 mg/kg by the oral route (intragastric via oral gavage—IG) twice daily. Balb/c mice received the compound for 10 days. Mice were infected with INFV A H1N1 (strain A/Texas) intranasally with ˜5 LD50 30 minutes following the first iminosugar dose.
(§1) Animals were monitored for 15 days. Animals were weighed once per day, and given health scores 2X per day. Animals displaying severe illness (as determined by 30% weight loss, extreme lethargy, ruffled coat, or paralysis) were euthanized.

[4] = test system: INFV A H1N1 (strain A/Texas); assay: Second influenza in vivo study: survival after H1/N1 (Texas) virus challenge; parameters: species or system Balb/c mice; conditions: 100 mg/kg TID oral for 10 days, ~1 LD90
Experimental: UV-4 was administered to the treated mice as a free drug dissolved in acidic water by the oral route (intragastric via oral gavage—IG) 100 mg/kg, TID for 10 days. The control mice received water orally, TID, instead of UV-4. Balb/c mice were used both for the treated mice and the control mice. Each mouse was microchipped for individual identity.
Mice were infected with INFV A H1N1 (strain A/Texas) intranasally with ˜1 LD90.
as §1, with “2×” for “2X”, “euthanized. The endpoint was considered a death of the animal or a more than 30% weight loss.” for “euthanized.”
The studied mice include the following groups (10 mice per group):
1) 1 hr pre-treatment. These mice received their first UV-4 dose 1 hr before being infected with INFV A H1N1 (strain A/Texas).
2) 24 hr post-treatment. These mice received their first UV-4 dose 24 hr after being infected with INFV A H1N1 (strain A/Texas).
3) 48 hr post treatment. These mice received their first UV-4 48 hr after being infected with INFV A H1N1 (strain A/Texas).
4) 96 hr post treatment. These mice received their first UV-4 96 hr after being infected with INFV A H1N1 (strain A/Texas).

With `CCCCN1C[C@H](O)[C@@H](O)[C@H](O)[C@H]1CO` [UV-1, N-Butyl deoxynojirimycin] the “weight loss compared to vehicle only control” value [1] was “did not show any significant signs of weight loss” and the IC90 [2] was 20000 nM.

`CCCCCCCCCN1C[C@H](O)[C@@H](O)[C@H](O)[C@H]1CO` [UV-2, N-Nonyl deoxynojirimycin] gave an IC90 [2] of 200 nM.

`CCCOCCCCCCN1C[C@H](O)[C@@H](O)[C@H](O)[C@H]1CO` [UV-3, N-(7-Oxadecyl)deoxynojirimycin] gave an IC90 [2] of 200 nM.

`COCCCCCCCCCN1C[C@H](O)[C@@H](O)[C@H](O)[C@H]1CO` [UV-4, N-(9-Methoxynonyl)deoxynojirimycin] gave a survival rate ([3]; 10 mg/kg BID oral gavage for 10 days) of 90%, a survival rate ([3]; 100 mg/kg BID oral gavage for 10 days) of 90% and a survival ([4]; first dose 1 hr before infection) of 100%. The survival ([4]; first dose 24 hr after infection) was 100%, the survival ([4]; first dose 48 hr after infection) was 90% and the survival ([4]; first dose 96 hr after infection) was 90%. The “weight loss compared to vehicle only control” value [1] was “did not show any significant signs of weight loss” and the IC90 [2] was 200 nM.

With `[N-]=[N+]=Nc1ccc(NCCCCCCN2C[C@H](O)[C@@H](O)[C@H](O)[C@H]2CO)c([N+](=O)[O-])c1` [UV-5, N-(N-{4′-azido-2′-nitrophenyl}-6-aminohexyl)deoxynojirimycin] the “weight loss compared to vehicle only control” value [1] was “did not show any significant signs of weight loss”, the clinical signs ([1]; BALB/c mice) was “signs of diarrhea, red urine, and a ruffled appearance” and the clinical signs ([1]; C57/B1/6 mice) was “these same symptoms but without the ruffled look”. The IC90 [2] was 200 nM.
